# Several values for one entry are separate records, joined by “and”; a condition that tells them apart may be missing. Equal entries are not always repeated.
# Legend:
# male Wistar rats = experiment: Sexual incentive motivation test, rats of late reproductive age; type: in vivo, rat
# Method: Erectile dysfunction was simulated by using animals of late and senile reproductive age (14-19 months). Suppression of sexual motivation was simulated by using animals of late reproductive age (14 months).
# Experiments on studying the effect of Treamid on sexual motivation were carried out on 40 male Wistar rats (14 months of age). A model for a targeted search for novel agents for the therapy of this pathology was used as an experimental model of sexual incentive motivation in rats [Xi Chu, Ekaterina S. Zhavbert, Julia L. Dugina, Irina A. Kheyfets, Svetlana A. Sergeeva, Oleg I. Epstein, Anders Agmo Sindenafil and a compound stimulating endothelial NO synthase modity sexual incentive motivation and copulatory behavior in male wistar and fisher 344//J Sex Med.—2008.—5.—P. 2085-2009]. This model is based on the fact that rats are social animals and seek not only sexual, but also social contacts. The assessment of sexual motivation involves determining the time spent near a sexual stimulus and the score of preference in animals without direct contact with “social” and “sexual” stimuli. The sexual stimulus was a female rat in estrus stage, and the social stimulus was a male rat.
# male rats = experiment: Morphological and functional state of spermatogenic tissue after Paclitaxel; type: in vivo, rat
# Method: The latter was simulated by a single injection of cytostatic drug Paclitaxel (Mitotax, Dr. Reddy's, India) to male rats (3 months of age). The choice of the drug was due to the fact that it is one of the medications that damage the precursors of spermatogenesis—stem cells.
# Paclitaxel was administered to the animals of the control and test groups once intravenously at the maximum tolerated dose of 7.6 mg/kg. Treamid was administered to the animals of the experimental groups intragastrically at a dose of 5 mg/kg in the form of a suspension in 2% starch mucus for 15 days a month after the administration of Paclitaxel. The control animals received an equivalent volume of the solvent (2% starch mucus), instead of the test compound.
# Morphological and functional state of the spermatogenic tissue was assessed to obtain an additional confirmation of the efficiency to stimulate the formation of committed stem cells.
# It was estimated by the following indices: the number of cells in the spermatogonial population, the average number of Sertoli cells, the degree of maturity of the spermatogenic layer, the number of Leydig cells, the endocrine activity of the testis, the total number of sperm cells per epididymis, and the percentage of motile sperm forms. For this, in euthanasia on Day 45, Day 65, and Day 90 of the experiment, the tail part of epididymis and testis were isolated at dissection. The epididymis of one testis was homogenized in a warm (37° C.) physiological saline, and the number of motile sperm forms was determined in the suspension of the epididymis cells. The total number of sperm cells per epididymis (TNS) was calculated by using a homogenized cell suspension of the second epididymis in a dosage amount of physiological saline using a leukocyte-count pipette and Goryaev chamber.
# A morphological assay of the testes of rats was performed by fixation thereof in Carnoy's fluid and by preparing paraffin sections. Deparaffined sections of a thickness of 5 μm were stained with hematoxylin-eosin. The number of cells in the spermatogonial population, the number of Sertoli cells, and the number of Leydig cells were counted on the testis section, and the endocrine activity of Leydig cells was determined. The degree of maturity of the spermatogenic layer was calculated based on the count of Sertoli cells. The calculation was carried out according to the formula for the experimental groups: y=5.95-0.18x; for the group of intact animals: y=6.7-0.23x, where x is the average number of Sertoli cells in the cross-section of the convoluted seminiferous tubule, and y is the index characterizing the degree of maturity of the spermatogenic layer. When choosing the time for studies, the duration of spermatogenesis in rats was taken into account, which was one and a half months. The duration of 45 and 65 days after administration of Paclitaxel corresponds to the manifestation of effects on the spermatogonial cell population.
# The criteria for stimulation of the process of regeneration of the testicular tissue were: an increase in the number of cells in the spermatogonial populations, the number of Sertoli cells, a decrease in the degree of maturity of the spermatogenic layer, and an increase in the productivity of spermatogenesis. The criterion of the functional activity of sperm cells is the percentage of their motile forms.
# male C57BL/6 mice [1] = experiment: Cachexia induced by Lewis lung carcinoma; type: in vivo, mouse; details: Day 28; Treamid 10 mg/kg intragastrically from Day 15
# Method: Cachexia developed in male C57Bl/6 mice when simulating hematogenously metastasizing Lewis lung carcinoma (LLC). Tumor cells were injected once subcutaneously into the mice at a concentration of 5×10^6 in 0.1 ml of physiological saline (Yu-Chou T., Samuel K. K., I-Lu L. et al. Preclinical Investigation of the Novel Histone Deacetylase Inhibitor AR-42 in the Treatment of Cancer-Induced Cachexia//JNCI J Natl Cancer Inst (2015) 107(12)).
# The day of the injection of tumor cells was taken as Day 1 of the experiment. Treamid was administered at a dose of 10 mg/kg intragastrically once daily, every day from Day 15 to […]. The animals were weighed one day before the introduction of tumor cells (Day 0) and on Day 28 of the experiment. On Day 28, the animals were euthanized in a CO2 chamber, and blood was collected. The level of free testosterone was determined in the blood serum by enzyme immunoassay.
# male C57BL/6 mice [2] = experiment: Streptozotocin-induced pancreatic lesion model; type: in vivo, mouse; details: Day 28; Treamid 1 mg/kg
# [3] = 14-month rats, Second test, after administration of the test compound, Treamid 5 mg/kg, Sildenafil 3 mg/kg, 14 days
# [4] = 14-month rats, first test, before administration
# [5] = Day 45 after Paclitaxel, Treamid 5 mg/kg
# [6] = Day 65 after Paclitaxel, Treamid 5 mg/kg
# [7] = Day 90 after Paclitaxel, Treamid 5 mg/kg
structure (smiles),measurement,setting,value
O=C(CCCC(=O)NCCc1ncc[nH]1)NCCc1ncc[nH]1 [Treamid],"A, sec (time spent in the sexual stimulus zone)",male Wistar rats; [3],154.00 ± 41.83#⋄ sec
same,"B, sex (time spent in the social stimulus zone)",male Wistar rats; [3],95.60 ± 29.66 s
same,"PS, s. u. (preference score)",male Wistar rats; [3],0.64±0.09 s. u. and 0.64 ± 0.09⋄ s. u.
same,effect on sexual motivation,"male Wistar rats; 14-month rats, Treamid 5 mg/kg, Sildenafil 3 mg/kg",has a stimulating effect
same,"A, sec (time spent in the sexual stimulus zone)",male Wistar rats; [4],132.30 ± 23.69 s
same,"B, sec (time spent in the social stimulus zone)",male Wistar rats; [4],113.60 ± 13.77 s
same,"PS, s. u. (preference score)",male Wistar rats; [4],0.51 ± 0.06 s. u.
same,decrease of time spent in the social stimulus zone compared with the control,"male Wistar rats; Treamid 5 mg/kg, second test",2 times
same,Number of motile sperm cells (%),male rats; [5],71.57 ± 3.19 %
same,The average number of Sertoli cells (abs.),male rats; [5],1.61 ± 0.03 abs.
same,The average number of spermatogonia (abs.),male rats; [5],14.56 ± 0.19 abs.
same,The degree of maturity of the spermatogenic layer (standard units),male rats; [5],5.66 ± 0.01 standard units
same,Total number of sperm cells (million),male rats; [5],146.00 ± 9.53 million
same,growth of percentage of motile sperm forms in comparison with the control,male rats; Day 65,32%
same,increase of productivity of spermatogenesis (TNS) in comparison with the control,male rats; Day 65,43%
same,Endocrine activity of testes,male rats; [6],4.31 ± 0.24
same,Number of Leydig cells,male rats; [6],9.48 ± 0.21
same,Number of motile sperm cells (%),male rats; [6],79.81 ± 1.61 %
same,The average number of Sertoli cells (abs.),male rats; [6],2.30 ± 0.03 abs.
same,The average number of spermatogonia (abs.),male rats; [6],13.07 ± 0.28 abs.
same,The degree of maturity of the spermatogenic layer (standard units),male rats; [6],5.54 ± 0.00 standard units
same,Total number of sperm cells (million),male rats; [6],145.20 ± 15.15 million
same,increase of productivity of spermatogenesis (TNS) in comparison with the control,male rats; Day 90,46%
same,Endocrine activity,male rats; [7],4.74 ± 4.04
same,Number of motile sperm cells (%),male rats; [7],67.80 ± 1.14 %
same,The average number of Leydig cells,male rats; [7],9.93 ± 0.08
same,The average number of Sertoli cells (abs.),male rats; [7],2.10 ± 0.06 abs.
same,The average number of spermatogonia (abs.),male rats; [7],14.43 ± 0.21 abs.
same,The degree of maturity of the spermatogenic layer (standard units),male rats; [7],5.57 ± 0.01 standard units
same,Total number of sperm cells (million),male rats; [7],186.20 ± 12.74 million
same,"Body weight, including the subtraction of the tumor weight",male C57BL/6 mice [1],23.8 ± 0.57 g
same,The free testosterone level (pg/ml) in the blood serum,male C57BL/6 mice [1],3.2 ± 0.3*• pg/ml
same,Total collagen (mg/ml) in the pancreas,male C57BL/6 mice [2],41 ± 4 mg/mL
same,Type I collagen (ng/ml) in the pancreas,male C57BL/6 mice [2],665 ± 55*• ng/ml

# Reference: patent US10076511B2, “Bisamide derivative of dicarboxylic acid as an agent for stimulating tissue regeneration and recovery of diminished tissue function” (TREAMID GmbH, priority 2015, dated 2018)
